In US8440669B2, “Pharmaceutical composition for prevention and treatment of diabetes or obesity comprising a compound that inhibits activity of dipeptidyl peptidase-IV, and other antidiabetic or antiobesity agents as active ingredients” (Dong-A Pharmaceutical Co. Ltd., priority 2008, dated 2013):
Several values for one entry are separate records, joined by “and”; a condition that tells them apart may be missing. Equal entries are not always repeated.

Experiments:
Type in all cases: in vivo
blood glucose [1] = assay: OGTT after 4-week administration in diet-induced obesity mice (rimonabant combination); details: obese mice
Procedure: (§1) In order to examine synergistic effects by repeated administration of a compound prepared in Preparation Example 1 and cannabinoid receptor-1 antagonist, effects of 4-week administration to obese mice on an OGTT blood glucose change curve and on fat mass were evaluated. Diet-induced obesity mice obtained by supplying experimental mice (C57BL/6 mice) with high fat fodder (60 kcal % fat, Research Diets, D12492) for 5 month were used as experimental subjects. 0.5% methylcellulose (MC) was used to prepare a suspension of the compound 1 prepared in Preparation Example 1 with a composition of 0.3 mg/kg which is presumed to be a dose of minimum effective efficacy and 3 mg/kg. 0.5% MC was used to prepare a suspension of rimonabant, a cannabinoid receptor-1 antagonist with a composition of 3 mg/kg. Rimonabant has the same parent nucleus structure as a cannabinoid receptor-1 antagonist, such as Otenabant, Ibinabant, and Surinabant, and 5 mL/kg of the complex thereof was prepared in doses of (0.3 mg of a compound prepared in Preparation Example 1+3 mg of rimonabant)/5 mL and (3 mg of a compound prepared in Preparation Example 1+3 mg/kg of rimonabant)/5 mL. When the mixing ratio is 1:0.1 or less, or 1:1 or more, the dose may exceed a daily clinical dose of rimonabant or poor efficacy may occur. Thus, the mixing ratio was set at […].
Obese mice were fasted for 16 to 17 hours prior to the experiments, blood was collected from caudal veins of mice in the morning on the day of the experiment and a blood glucose level was measured with an ACCU-CHEK ACTIVE Blood Glucose Meter (Roche Diagnostics). The pharmaceutically mixed composition of the present invention was given orally 30 min prior to glucose administration (−30 min), followed by oral administration of a glucose solution (2 g/kg/10 mL) after 30 min (0 min). […] The percent inhibition value was calculated by calculating an area under curve of each group and comparing the value with that of a control group in which glucose had been administered.

[2] = Fat mass (epidydimal + retroperitoneal fat) after 4-week administration in diet-induced obesity mice; details: 4 weeks; for Fat mass: HF-DIO mice (control 3.61 ± 0.20); for % reduction (fat mass): vs HF-DIO control group
Procedure: as §1
Experiments were performed on the experimental subject and experimental drug in the same manner as in Experimental Example 5-1, the fat mass was calculated as a sum of epidydimal fat and retroperitoneal fat, and fat mass 4 weeks after administration was measured.

blood glucose [3] = assay: Blood glucose after 7-day administration in db/db diabetic mice
Procedure: In order to examine synergistic effects of a complex by a compound prepared in Preparation Example 1 of the present invention and an insulin sensitizer PPARγ agonist, the percent inhibition of blood glucose by repeated administration of the complex to db/db mice as diabetic mice was evaluated. Eight-week-old male mice (db/db mice) were used as experimental subjects. […] The dose of a compound prepared in Preparation Example 1 with respect to rosiglitazone at a fixed dose was selected at 1 mg/kg and 40 mg/kg (complex ratio 1:0.01˜1:0.4) in consideration of a complex ratio in an expected clinical dose. […] 0.5% methylcellulose (MC) was at each drug concentration to prepare suspensions. Each compound was weighed, and 0.5% methylcellulose was used to prepare 5 mL/kg of suspensions with each composition of (1 mg of the compound prepared in Preparation Example 1+0.4 mg of rosiglitazone)/5 mL and (40 mg of the compound prepared in Preparation Example 1+0.4 mg of rosiglitazone)/5 mL.
The percent inhibition value with respect to blood glucose was calculated by comparison with a control group.

blood glucose [4] = assay: Oral sucrose tolerance test, single administration in C57BL/6 mice (voglibose combination)
Procedure: In order to examine synergistic effects of a compound prepared in Preparation Example 1 of the present invention and an α-glucosidase inhibitor-series drug by complexing drugs, the percent inhibition in a single administration oral sucrose tolerance test blood glucose change curve by individual materials and a complex thereof was evaluated. 8-week-old male experimental mice (C57BL/6 mice) were used as experimental subjects. The mice were fasted for 16 to 17 hours prior to the experiments. Blood was collected from caudal veins of mice in the morning on the day of the experiment and a blood glucose level was measured with an ACCU-CHEK ACTIVE Blood Glucose Meter (Roche Diagnostics). The pharmaceutically mixed composition of the present invention was given orally 30 min prior to sucrose administration (−30 min), followed by oral administration of a […] (2 g/kg/10 mL) after 30 min (0 min). Blood collection was made at designated time points—just prior to drug administration, just prior to sucrose administration, and 15, 30, 60, 90, and 120 min after sucrose administration. […] In order to evaluate synergistic or additive effects by complexes in the present evaluation, 0.5% methylcellulose (MC) was used to prepare a suspension with a compound prepared in Preparation Example 1 at a dose of 0.3 mg/kg, and 0.5% MC was also used to prepare a suspension with a composition of an α-glucosidase inhibitor and voglibose at 0.009 mg/kg and 0.054 mg/kg (complex ratio 1:0.031:0.18) such that a complex ratio may be included at a clinical dose expected in a state where a dose of a compound prepared in Preparation Example 1 was fixed.

blood glucose [5] = assay: OGTT, single administration in C57BL/6 mice (glimepiride combination)
Procedure: In order to examine synergistic effects of a complex of a compound prepared in Preparation Example 1 of the present invention and an insulin secretagogue sulfonyl urea-series drug, the percent inhibitions of single administration OGTT blood glucose change curves by individual materials and complexes were evaluated. 8-week-old male experimental mice (C57BL/6 mice) were used and fasted for 16 to 17 hours prior to the experiments. Blood was collected from caudal veins of mice in the morning on the day of the experiment and a blood glucose level was measured with an ACCU-CHEK ACTIVE Blood Glucose Meter (Roche Diagnostics). The mixed composition of the present invention was given orally 30 min prior to glucose administration (−30 min), followed by oral administration of a glucose solution (2 g/kg/10 mL) after 30 min (0 min). Blood collection was made at designated time points—just prior to drug administration, just prior to glucose administration, and 15, 30, 60 and 90 min after glucose administration. […] In order to evaluate synergistic or additive effects by complex in the present evaluation, 0.5% methylcellulose (MC) was used to prepare a suspension with a dose of a compound prepared in Preparation Example 1 at 0.1 mg/kg, and 0.5% MC was also used to prepare a suspension with a composition of an insulin secretagogue sulfonyl urea-series drug and glimepiride at 0.02 mg/kg and 0.32 mg/kg such that a complex ratio may be included at a clinical dose expected in a fixed state of a compound prepared in Preparation Example 1. […] A complex thereof was prepared at 10 mL per kg by weighing individual compounds and mixing the compounds with each composition ((a compound prepared in Preparation Example 10.1 mg+glimepiride 0.02 mg)/10 mL and (a compound prepared in Preparation Example 10.1 mg+glimepiride 0.32 mg)/10 mL)).

plasma glucose = assay: Plasma glucose after 2-week repeated administration in diet-induced obesity mice; details: obese mice
Procedure: (§2) In order to examine synergistic effects of a compound prepared in Preparation Example 1 of the present invention and metformin complex by repeated administration, effects of a single administration to obese mice on an OGTT blood glucose change curve and of a 2-week repeated administration on the percent inhibition of blood glucose were evaluated. Diet-induced obesity mice obtained by supplying experimental mice (C57BL/6 mice) with high fat fodder (60 kcal % fat, Research Diets, D12492) for 5 month were used as experimental subjects. 0.5% methylcellulose (MC) was used to prepare a suspension of the compound 1 prepared in Preparation Example 1 with a composition of 0.1 mg/kg and 0.15 mg/kg. 0.5% MC was used to prepare a suspension of metformin with a composition of 7.5 mg/kg and 15 mg/kg. […] of the complex was prepared in doses of (0.1 mg/kg of a compound prepared in Preparation Example 1+15 mg/kg of metformin)/5 mL and (0.15 mg/kg of a compound prepared in Preparation Example 1+7.5 mg/kg of metformin)/5 mL.

blood glucose [6] = assay: Oral glucose tolerance test (OGTT), single administration in normal mice; ED30 and isobologram; details: C57BL/6 mice; for ED30 ± (SEM): dose giving 30% inhibition of OGTT blood glucose AUC, single agent
Procedure: Laboratory mice (C57BL/6 mice) as experimental subjects were fasted for 16 to 17 hours prior to the experiments. Blood was collected from caudal veins of mice in the morning on the day of the experiment and a blood glucose level was measured with an ACCU-CHEK ACTIVE Blood Glucose Meter (Roche Diagnostics). The pharmaceutical composition of the present invention was given orally 30 min prior to glucose administration (−30 min), followed by oral administration of a glucose solution (2 g/kg/10 mL) after 30 min (0 min). Blood collection was made at designated time points—just prior to drug administration, just prior to glucose administration, and 15, 30, 60 and 90 min after glucose administration.
Effects of single administration of the individual agents on a blood glucose change curve in an oral glucose tolerance test (OGTT) were identified by percent inhibition (%) and ED30. The percent inhibition values for each treatment were generated from the area under curve (AUC) data normalized to the non-glucose challenged controls by subtracted blood glucose AUC of non-glucose challenged controls from glucose challenged groups, and comparing the value with that of a control group in which glucose has been administered.
Feasible synergistic effects of a composition at each fixed ratio were analyzed by isobologram (R. J. Tallarida et al, Life Sci. 1989, 45, 947). […] When the result of ED30mix<ED30add is established at a certain fixed ratio, the mixture has synergistic effects. ED30add was calculated from ED30 of each drug. In FIG. 1, fractions of the ED30 values of each material are present on each axis thereof. The ED30 value of the compound prepared in Preparation Example 1 only is 0.2 mg/kg and shown as value 1 in FIG. 1, and the ED30 value of metformin only is 30 mg/kg and shown as value 1 in FIG. 1. Therefore, the line combining the ED30 values of the two individual drugs indicates a simple additivity (ED30add) calculated from glucose tolerance effects at different ratios. Therefore, the points designated as A, B, C, and D in FIG. 1 with respect to each mixture studied indicate fractions of ED30 values (ED30mic) determined by actual experiments performed on a mixtures of the compound prepared in Preparation Example 1 and metformin at ratios of 9:1, 5:1, 1:1, and 1:3. The points A′, B′, C′, and D′ in FIG. 1 indicate fractions of doses (ED30add) corresponding to mixtures of the compound prepared in Preparation Example 1 and metformin at ratios of 9:1, 5:1, 1:1, and 1:3 expected under a simple additivity.
The ratios of doses actually administered to animals in each fraction were calculated by multiplying 0.2 mg/kg and 30 mg/kg which are ED30 values of the compound prepared in Preparation Example 1 and metformin, respectively with a desired ratio. Administrations were performed in the ranges of: 0.045˜0.36 mg/kg of the compound prepared in Preparation Example 1+0.75˜6 mg/kg of metformin at a ratio of 9:1, 0.042˜0.33 mg/kg of the compound prepared in Preparation Example 1+1.25˜10 mg/kg of metformin at a ratio of 5:1, 0.025˜0.2 mg/kg of the compound prepared in Preparation Example 1+[…] of metformin at a ratio of 1:1, 0.0125˜0.2 mg/kg of the compound prepared in Preparation Example 1+5.625˜45 mg/kg of metformin at a ratio of 1:3. When this is applied to a healthy adult (about 70 kg), the dose corresponds to 0.88˜25.2 mg of the compound prepared in Preparation Example 1 and 52.5˜3150 mg of metformin, and includes a daily clinical dose of metformin, which is 500˜2000 mg.

blood glucose [7] = assay: OGTT, single administration in diet-induced obesity mice; details: obese mice
Procedure: as §2
Obese mice were fasted for 16 to 17 hours prior to the experiments, blood was collected from caudal veins of mice in the morning on the day of the experiment and a blood glucose level was measured with an ACCU-CHEK ACTIVE Blood Glucose Meter (Roche Diagnostics). The mixed composition of the present invention was given orally 30 min prior to glucose administration (−30 min), followed by oral administration of a glucose solution (2 g/kg/10 mL) after 30 min (0 min). Blood collection was made at designated time points—just prior to drug administration, just prior to glucose administration, and 15, 30, 60 and 90 min after glucose administration. The percent inhibition value was calculated by calculating an area under curve of each group and comparing the value with that of a control group in which glucose had been administered.

Cc1c(C(=O)NN2CCCCC2)nn(-c2ccc(Cl)cc2Cl)c1-c1ccc(Cl)cc1 [Rimonabant, rimonabant, reference compound]
Percent inhibition (blood glucose AUC, OGTT) (blood glucose [1]; 4-week administration 3 mg/kg): 1.1%
Fat mass ([2]; 3 mg/kg): 2.11 ± 0.31 g
% reduction (fat mass) ([2]; 3 mg/kg): 41.5%

CN(CCOc1ccc(CC2SC(=O)NC2=O)cc1)c1ccccn1 (stereo not shown) [Rosiglitazone, rosiglitazone, reference compound]
Percent inhibition (blood glucose vs control) (blood glucose [3]; 7 days oral 0.4 mg/kg): 10%

OCC(CO)N[C@H]1C[C@](O)(CO)[C@@H](O)[C@H](O)[C@H]1O [Voglibose, voglibose]
Percent inhibition (blood glucose AUC, oral sucrose tolerance test) (blood glucose [4]; single oral dose 0.009 mg/kg): 1%
Percent inhibition (blood glucose AUC, oral sucrose tolerance test) (blood glucose [4]; single oral dose 0.054 mg/kg): 53%

CCC1=C(C)CN(C(=O)NCCc2ccc(S(=O)(=O)NC(=O)N[C@H]3CC[C@H](C)CC3)cc2)C1=O [Glimepiride, glimepiride]
Percent inhibition (blood glucose AUC, OGTT) (blood glucose [5]; single oral dose 0.02 mg/kg): −3.69%
Percent inhibition (blood glucose AUC, OGTT) (blood glucose [5]; single oral dose 0.32 mg/kg): 10.9%

CC(C)(C)OC[C@@H]1C(=O)NCCN1C(=O)C[C@H](N)Cc1cc(F)c(F)cc1F [(R)-4-[(R)-3-amino-4-(2,4,5-trifluorophenyl)-butanoyl]-3-(t-butoxymethyl)piperazin-2-one]
Percent inhibition (plasma glucose vs control) (plasma glucose; 2-week repeated administration 0.1 mg/kg): 2%
Percent inhibition (plasma glucose vs control) (plasma glucose; 2-week repeated administration 0.15 mg/kg): 15%
Percent inhibition (blood glucose AUC, OGTT) (blood glucose [1]; 4-week administration 0.3 mg/kg): 18.2%
Percent inhibition (blood glucose AUC, OGTT) (blood glucose [1]; 4-week administration 3 mg/kg): 35.3%
ED30 ± (SEM) (blood glucose [6]): 0.20 mg/kg and 0.2 mg/kg and 0.20 ± 0.04 mg/kg
Percent inhibition (blood glucose AUC, OGTT) (blood glucose [6]; single oral dose 0.1 mg/kg): 18.5%
Percent inhibition (blood glucose AUC, OGTT) (blood glucose [6]; single oral dose 0.3 mg/kg): 38.7%
Percent inhibition (blood glucose AUC, OGTT) (blood glucose [6]; single oral dose 1 mg/kg): 54.8%
Percent inhibition (blood glucose AUC, OGTT) (blood glucose [5]; single oral dose 0.1 mg/kg): 7.7%
Percent inhibition (blood glucose AUC, OGTT) (blood glucose [7]; single administration 0.1 mg/kg): 2%
Percent inhibition (blood glucose AUC, OGTT) (blood glucose [7]; single administration 0.15 mg/kg): 3%
Percent inhibition (blood glucose AUC, oral sucrose tolerance test) (blood glucose [4]; single oral dose 0.3 mg/kg): 12%
Percent inhibition (blood glucose vs control) (blood glucose [3]; 7 days oral 1 mg/kg): 21%
Percent inhibition (blood glucose vs control) (blood glucose [3]; 7 days oral 40 mg/kg): 11%
Fat mass ([2]; 0.3 mg/kg): 3.67 ± 0.12 g
% reduction (fat mass) ([2]; 0.3 mg/kg): −1.65%
Fat mass ([2]; 3 mg/kg): 3.29 ± 0.21 g
% reduction (fat mass) ([2]; 3 mg/kg): 8.71%

CN(C)C(=N)N=C(N)N [Metformin, metformin, reference compound]
Percent inhibition (plasma glucose vs control) (plasma glucose; 2-week repeated administration 7.5 mg/kg): 13%
Percent inhibition (plasma glucose vs control) (plasma glucose; 2-week repeated administration 15 mg/kg): 14%
ED30 ± (SEM) (blood glucose [6]): 29.6 mg/kg and 30 mg/kg and 29.6 ± 6.68 mg/kg
Percent inhibition (blood glucose AUC, OGTT) (blood glucose [6]; single oral dose 10 mg/kg): 7.43%
Percent inhibition (blood glucose AUC, OGTT) (blood glucose [6]; single oral dose 30 mg/kg): 29.06%
Percent inhibition (blood glucose AUC, OGTT) (blood glucose [6]; single oral dose 100 mg/kg): 54.46%
Percent inhibition (blood glucose AUC, OGTT) (blood glucose [7]; single administration 7.5 mg/kg): 7%
Percent inhibition (blood glucose AUC, OGTT) (blood glucose [7]; single administration 15 mg/kg): 11%
